Assay type in all cases: in vivo
One assay concerns corn (Zea mays). The experiment in a line: Test A greenhouse herbicide test, pre- and postemergence. The settings on record: for Corn plant response rating (crop injury, 0 = no effect, 100 = complete kill) at 125 g/ha / plant injury at 500 g/ha: post-emergence; for Corn plant response rating (crop injury, 0 = no effect, 100 = complete kill) at 125 g/ha / plant injury at 500 g/ha / Plant response rating, Corn: Postemergence; for plant injury at 500 g/ha: 0 is no effect, 100 is complete control. The gist of the method:
(§1)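 Visual injury ratings, 0 (no effect) to 100 (complete control), versus untreated plants after roughly 10 d in a greenhouse. Compounds, formulated in a surfactant-containing non-phytotoxic solvent, were sprayed on loam–sand soil after sowing (pre) or on one- to two-leaf plants 2–10 cm tall (post).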

Assay [1] has as its system barnyardgrass (Echinochloa crus-galli). The description is as above. Particulars: for pest or weed control at 125 g/ha / pest or weed control at 500 g/ha: Echinochloa crus-galli, 240 h. The gist of the method:
as §1

Assay [2] concerns foxtail, giant (giant foxtail, Setaria faberii). The description is as above. Particulars: for pest or weed control at 125 g/ha / pest or weed control at 500 g/ha: Setaria faberi, 240 h; for pest or weed control at 500 g/ha: 0 to 100 scale. The gist of the method:
as §1

For assay [3], the system named is sedge, umbrella (small-flower umbrella sedge, Cyperus difformis). The experiment in a line: Test B flooded paddy test. Particulars: Cyperus difformis, 360 h; 250 g ai/ha, Flood; visual rating on scale of 0 to 100 where 0 is no effect and 100 is complete control; 13 to 15 d after treatment; read-out: Plant response rating, Sedge, Umbrella. The gist of the method: (§2)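 Ratings use a 0-100 visual scale, where 100 is complete control, and compare treated plants with controls after 13 to 15 d of greenhouse growth. Compound went straight into paddy water kept 3 cm over the soil surface, applied to seedlings at the 2-leaf stage.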

Assay [4] deals with barnyardgrass (Echinochloa crus-galli). The experiment in a line: Test B flooded paddy test. The settings on record: Echinochloa crus-galli, 360 h; 250 g ai/ha, Flood; visual rating on scale of 0 to 100 where 0 is no effect and 100 is complete control; 13 to 15 d after treatment; read-out: Plant response rating, Barnyardgrass. The gist of the method:
as §2

Assay [5] has as its system ducksalad (Heteranthera limosa). The experiment in a line: Test B flooded paddy test. Particulars: Heteranthera limosa, 360 h; 250 g ai/ha, Flood; visual rating on scale of 0 to 100 where 0 is no effect and 100 is complete control; 13 to 15 d after treatment; read-out: Plant response rating, Ducksalad. The gist of the method:
as §2

For another assay, the system named is rice (Oryza sativa). The experiment in a line: Test B flooded paddy test. Particulars: Oryza sativa, 360 h; 250 g ai/ha, Flood; visual rating on scale of 0 to 100 where 0 is no effect and 100 is complete control; 13 to 15 d after treatment; read-out: Plant response rating, Rice. The gist of the method:
as §2

For assay [6], the system named is kochia (Kochia scoparia). The experiment in a line: Test A greenhouse herbicide test, pre- and postemergence. The settings on record: for pest or weed control at 125 g/ha / pest or weed control at 500 g/ha: Bassia scoparia, 240 h; for pest or weed control at 500 g/ha: 0 to 100 scale. The gist of the method: as §1
In assay [7] the test system is ragweed (common ragweed, Ambrosia elatior). The description is as above. The settings on record: for pest or weed control at 125 g/ha / pest or weed control at 500 g/ha: Ambrosia artemisiifolia, 240 h; for pest or weed control at 500 g/ha: 0 to 100 scale. The gist of the method: as §1
In assay [8] the test system is oat, wild (wild oat, Avena fatua). In words: Test C greenhouse herbicide test, postemergence. Particulars: Postemergence. The source says: (§3) At the same time, plants selected from these crop and weed species and also chickweed (common chickweed, Stellaria media), kochia (Kochia scoparia), and oat, wild (wild oat, Avena fatua), were planted in pots containing Redi-Earth® planting medium (Scotts Company, 14111 Scottslawn Road, Marysville, Ohio 43041) comprising spaghnum peat moss, vermiculite, wetting agent and starter nutrients and treated with postemergence applications of test chemicals formulated in the same manner. Plants ranged in height from 2 to 18 cm (1- to 4-leaf stage) for postemergence treatments. Treated plants and controls were maintained in a greenhouse for 13 to 15 d, after which time all species were compared to controls and visually evaluated. Plant response ratings, summarized in Table C, are based on a scale of 0 to 100 where 0 is no effect and 100 is complete control. A dash (-) response means no test result.

Assay [9] relates to kochia (Kochia scoparia). In words: Test C greenhouse herbicide test, postemergence. The settings on record: Postemergence.
Text: as §3

In assay [10] the test system is chickweed (common chickweed, Stellaria media). In words: Test C greenhouse herbicide test, postemergence. Particulars: for Plant response rating, Chickweed: Postemergence.
Text: as §3

Setting [11] is: Zea mays, 240 h, 125 g ai/ha, visual rating after approx. 10 d, 0 to 100 scale (0 no effect, 100 complete control).
The mark [12] stands for this setting: Zea mays, 240 h, 500 g ai/ha, 0 to 100 scale, read-out: Corn plant response rating.
Where [13] appears, read: post-emergence, Postemergence, 125 g ai/ha, visual rating after approx. 10 d, 0 to 100 scale (0 no effect, 100 complete control), read-out: Plant response rating, Barnyardgrass.
[14] abbreviates: post-emergence, Postemergence, 500 g ai/ha, 0 to 100 scale, 0 is no effect, 100 is complete control, read-out: Barnyardgrass plant response rating.
The mark [15] stands for this setting: pre-emergence, Preemergence, 125 g ai/ha, 0 to 100 scale where 0 is no effect and 100 is complete control, read-out: Barnyardgrass plant response rating.
The mark [16] stands for this setting: pre-emergence, Preemergence, 500 g ai/ha, 0 to 100 scale, 0 no effect, 100 complete control, read-out: Plant response rating, Barnyardgrass.
Setting [17] is: post-emergence, Postemergence, 125 g ai/ha, visual rating after approx. 10 d, 0 to 100 scale (0 no effect, 100 complete control), read-out: Plant response rating, Foxtail, Giant.
Where [18] appears, read: post-emergence, Postemergence, 500 g ai/ha, 0 is no effect, 100 is complete control, read-out: Foxtail, Giant plant response rating.
[19] abbreviates: pre-emergence, Preemergence, 125 g ai/ha, 0 to 100 scale where 0 is no effect and 100 is complete control, read-out: Foxtail, Giant plant response rating.
[20] abbreviates: pre-emergence, Preemergence, 500 g ai/ha, 0 no effect, 100 complete control, read-out: Plant response rating, Foxtail, Giant.
Where [21] appears, read: Postemergence, 125 g ai/ha, 0 to 100 scale where 0 is no effect and 100 is complete control.
The mark [22] stands for this setting: Postemergence, 500 g ai/ha, visual rating after approx. 10 d, 0 to 100 scale (0 no effect, 100 complete control).
[23] abbreviates: Preemergence, 125 g ai/ha, 0 to 100 scale where 0 is no effect and 100 is complete control.
Where [24] appears, read: Preemergence, 500 g ai/ha, 0 to 100 scale where 0 is no effect and 100 is complete control.
Where [25] appears, read: 31 g ai/ha, scale 0 to 100 (0 no effect, 100 complete control).
[26] abbreviates: 125 g ai/ha, scale 0 to 100, 0 is no effect, 100 is complete control.
Setting [27] is: 250 g ai/ha, scale 0 to 100, 0 no effect, 100 complete control, 13 to 15 d.

Read-outs that look alike come from different tables or passages of the source.

In the assay with corn (Zea mays) (setting [11]), `Cc1nn(C)c(=O)c(-c2c(C)oc3cccc(C)c23)c1O` [Compound 8, 4-(2,4-dimethyl-3-benzofuranyl)-5-hydroxy-2,6-dimethyl-3(2H)-pyridazinone] showed a Corn plant response rating (crop injury, 0 = no effect, 100 = complete kill) at 125 g/ha of 0%. In addition, the plant injury at 500 g/ha with corn (Zea mays) (setting [12]) was determined as 0%. In addition, the plant injury at 125 g/ha in the assay on corn (Zea mays) (Zea mays, pre-emergence, 240 h, Preemergence, 125 g ai/ha, 0 to 100 scale where 0 is no effect and 100 is complete control, read-out: Corn plant response rating) stood at 0%. In the assay on corn (Zea mays) (Zea mays, pre-emergence, 240 h, Preemergence, 500 g ai/ha, 0 to 100 scale, 0 no effect, 100 complete control), this compound gave a Corn plant response rating (crop injury, 0 = no effect, 100 = complete kill) at 500 g/ha of 0%. Besides, the pest or weed control at 125 g/ha in assay [1] (setting [13]) came to 0%; in [1] (setting [15]), 0%; in assay [2] (setting [17]), 0%; in assay [2] (setting [19]), 40%. The pest or weed control at 500 g/ha in assay [1] (setting [14]) was 0%; in [1] (setting [16]), 0%; in assay [2] (setting [18]), 30%; in [2] (setting [20]), 60%. Also, the pest or weed control at 250 g/ha in [3] amounted to 70%; in [4], 30%; in [5], 20%. Moreover, in the assay on rice (Oryza sativa), the plant injury at 250 g/ha worked out at 0%.
In the case of `Cc1ccc2oc(C)c(-c3c(OC(=O)C(C)(C)C)c(C)nn(C)c3=O)c2c1` [Compound 17, 5-(2,5-dimethyl-3-benzofuranyl)-1,6-dihydro-1,3-dimethyl-6-oxo-4-pyridazinyl 2,2-dimethylpropanoate], the pest or weed control at 125 g/ha with kochia (Kochia scoparia) [6] (post-emergence, Postemergence, 125 g ai/ha, visual rating after approx. 10 d, 0 to 100 scale (0 no effect, 100 complete control), read-out: Plant response rating, Kochia) was 0%; with kochia (Kochia scoparia) [6] (pre-emergence, Preemergence, 125 g ai/ha, 0 to 100 scale where 0 is no effect and 100 is complete control, read-out: Kochia plant response rating) it was 0%; in assay [7] (post-emergence, Postemergence, 125 g ai/ha, visual rating after approx. 10 d, 0 to 100 scale (0 no effect, 100 complete control), read-out: Plant response rating, Ragweed), 0%; in assay [7] (pre-emergence, Preemergence, 125 g ai/ha, 0 to 100 scale where 0 is no effect and 100 is complete control, read-out: Ragweed plant response rating), 0%; in [1] (setting [13]), 0%; in [1] (setting [15]) it was 0%. Besides, the pest or weed control at 125 g/ha in assay [2] (setting [17]) and in assay [2] (setting [19]) was 0% in each case. Moreover, the pest or weed control at 500 g/ha in the assay with kochia (Kochia scoparia) [6] (post-emergence, Postemergence, 500 g ai/ha, 0 is no effect, 100 is complete control, read-out: Kochia plant response rating) was 0%; in the assay on kochia (Kochia scoparia) [6] (pre-emergence, Preemergence, 500 g ai/ha, 0 no effect, 100 complete control, read-out: Plant response rating, Kochia), 0%; in assay [7] (post-emergence, Postemergence, 500 g ai/ha, 0 is no effect, 100 is complete control, read-out: Ragweed plant response rating) it was 0%; in assay [7] (pre-emergence, Preemergence, 500 g ai/ha, 0 no effect, 100 complete control, read-out: Plant response rating, Ragweed) it was 10%; in assay [1] (setting [14]) it was 0%; in assay [1] (setting [16]), 0%. Further, the pest or weed control at 500 g/ha in [2] (setting [18]) and in [2] (setting [20]) was 0% each time. For the same compound, the Corn plant response rating (crop injury, 0 = no effect, 100 = complete kill) at 125 g/ha in the assay with corn (Zea mays) (setting [11]) was 0%. Further, the plant injury at 500 g/ha with corn (Zea mays) (setting [12]) came out at 0%. Moreover, the pest or weed control at 250 g/ha in assay [3], in assay [4] and in [5] was 0% each time. In the assay on rice (Oryza sativa), the plant injury at 250 g/ha was 0%.
For the compound `CC(=O)Oc1c(C)nn(C)c(=O)c1-c1c(C)sc2ccc(Cl)cc12` [Compound 108], the “Plant response rating, Kochia” value in the assay on kochia (Kochia scoparia) [6] (setting [21]) is 90; in the assay with kochia (Kochia scoparia) [6] (setting [22]), 100; with kochia (Kochia scoparia) [6] (setting [24]) it was 100; in the assay on kochia (Kochia scoparia) [9] (setting [25]), 90; with kochia (Kochia scoparia) [9] (setting [26]) it was 95; with kochia (Kochia scoparia) [9] (setting [27]), 100. The “Kochia plant response rating” value with kochia (Kochia scoparia) [6] (setting [23]) was 90. Also, the “Plant response rating, Ragweed” value in [7] (setting [21]) was 70; in assay [7] (setting [22]) it was 100; in assay [7] (setting [24]), 100. For the same compound, the “Ragweed plant response rating” value in assay [7] (setting [23]) was found to be 90. The “Plant response rating, Corn” value is 0 with corn (Zea mays) (125 g ai/ha, 0 to 100 scale where 0 is no effect and 100 is complete control); 0 with corn (Zea mays) (500 g ai/ha, visual rating after approx. 10 d, 0 to 100 scale (0 no effect, 100 complete control)). Also, the “Plant response rating, Barnyardgrass” value in assay [1] (setting [21]) is given as 30; in [1] (setting [24]), 100. For the same compound, the “Barnyardgrass plant response rating” value is given as 90 in assay [1] (Postemergence, 500 g ai/ha, 0 to 100 scale, 0 is no effect, 100 is complete control) and 20 in assay [1] (setting [23]). The “Plant response rating, Foxtail, Giant” value in assay [2] (setting [21]) is reported as 60; in assay [2] (setting [22]), 90; in assay [2] (setting [24]) it was 100. For the same compound, the “Foxtail, Giant plant response rating” value in assay [2] (setting [23]) is reported as 90. Further, the “Plant response rating, Oat, Wild” value in assay [8] (setting [25]) was 80; in [8] (setting [26]), 90; in assay [8] (setting [27]) it was 90. Further, the results for the “Plant response rating, Chickweed” value in assay [10] (setting [25]), in assay [10] (setting [26]) and in assay [10] (setting [27]) were 90, 95 and 98, respectively. Further, in assay [10] (postemergence, 62 g ai/ha, scale 0 to 100, 0 no effect, 100 complete control), the “Chickweed plant response rating” value was determined as 90.

The record behind these values is patent US10597388B2, “Pyridazinone herbicides” (FMC CORPORATION, priority 2014, dated 2020).
